Results as given in paper PMC12040169 (PLOS Biology, 2025).

Test: in vitro
Details: human, hela cells, % viability

Structure (SMILES) | viability at 28.5 h, 10 µM [%]
Cc1ccc(C2(O)CC3CCC(C2)N3C(=O)c2ccncc2)cc1 (centres unmarked) [CBK284609] | 100
O=C(C1CCCCC1)N1CCC(c2nnc3n2CCCCC3)CC1 [CBK284613] | 92.7
CCC(CC)C(=O)N1CCC(c2nnc3n2CCCCC3)CC1 [CBK284614] | 86.6
O=C(C1CCCCC1)N1CC(n2nc(-c3ccccc3)ccc2=O)C1 [CBK284616] | 92.8
O=C(C1CCCC1)N1CC(n2nc(-c3ccccc3)ccc2=O)C1 [CBK284617] | 93.9
CCC(C(=O)N1CCc2nc(C)[nH]c(=O)c2C1)c1ccccc1 (centres unmarked) [CBK284618] | 91.6
Cc1cccc(CN2CCC3(CCc4ccccc4C(=O)N3)C2)n1 (centres unmarked) [CBK284619] | 106
O=C1NC2(CCc3ccccc31)CCN(Cc1cccnc1)C2 (centres unmarked) [CBK284620] | 96.5
Cc1cc(C)c2c(NCc3ccc(C)o3)n[nH]c2n1 [CBK284621] | 94.9
CC(C)(C)C(=O)N1CC(n2nc(-c3ccccc3)ccc2=O)C1 [CBK284623] | 92.1
O=C(C1CCC1)N1CC(n2nc(-c3ccccc3)ccc2=O)C1 [CBK284624] | 79.2
O=C(c1cccs1)N1CCC(c2nnc3n2CCCCC3)CC1 [CBK284626] | 95.7
O=C(c1cccc(F)c1)N1CCC(c2nnc3n2CCCCC3)CC1 [CBK284627] | 103
O=C(CC1CCCC1)N1CCC(c2nnc3n2CCCCC3)CC1 [CBK284630] | 84.6
O=C(CC1CCCC1)N1CCCC(c2nnc(-c3cccs3)o2)C1 (centres unmarked) [CBK284631] | 94.3
O=C(Cc1ccccc1F)NCc1nnc(-c2cccs2)o1 [CBK284632] | 82
O=C(NCc1nnc(-c2cccs2)o1)C1(c2ccccc2)CC1 [CBK284635] | 96.2
O=C(Cc1ccc(F)cc1)NCc1nnc(-c2cccs2)o1 [CBK284640] | 82.6
Cc1ccc(-c2nnc(CNC(=O)c3cccc(F)c3F)o2)s1 [CBK284641] | 91.1
Cc1ccc(-c2nnc(CNC(=O)c3cccc(Cl)c3)o2)s1 [CBK284646] | 79.1
Cc1ccc(-c2nnc(CNC(=O)c3ccc(F)c(F)c3)o2)s1 [CBK284647] | 90.5
COCc1ccc(CN2CCC3(CCc4ccccc4C(=O)N3)C2)o1 (centres unmarked) [CBK284651] | 94.3
CC(C)C(=O)N1CCC(c2nc3ccc(F)cc3cc2N)CC1 [CBK284656] | 81.5

Structure (SMILES) | viability at 28.5 h, 10 µM [%]
OC1(Cn2cnc3ccccc32)CCN(Cc2ccc(F)cc2)CC1 [CBK284661] | 85.7
Cc1cnn(CCC(=O)NC(Cc2ccsc2)c2nccs2)c1 (centres unmarked) [CBK284664] | 88.4
O=C(CCc1cccnc1)NC(Cc1ccsc1)c1nccs1 (centres unmarked) [CBK284665] | 99.5
Cn1ccc(C2CCCCCN2S(=O)(=O)c2ccc(F)cc2)n1 (centres unmarked) [CBK284671] | 98.8
CCS(=O)(=O)N1CCCCCC1c1nn(C)cc1Cl (centres unmarked) [CBK284672] | 83.6
Cn1nc(C(F)(F)F)cc1C1CCCCCN1S(C)(=O)=O (centres unmarked) [CBK284673] | 101
O=C(Cn1c(C2CCOCC2)cc2cccnc21)N1CCCCCC1 [CBK284674] | 105
CC1CCCCN1C(=O)Cn1c(C2CCOCC2)cc2cccnc21 (centres unmarked) [CBK284675] | 97.7
CC(=O)NC(c1nccs1)C1CCN(C(=O)C(C)(C)C)CC1 (centres unmarked) [CBK284677] | 88.9
CC(C)(C)C(=O)NC(c1nccs1)C1CCN(C(=O)C2CC2)CC1 (centres unmarked) [CBK284678] | 88.8
C1=C(CNC(Cc2cccs2)c2nccs2)COCC1 (centres unmarked) [CBK284682] | 103
Cc1c(CN2CCCC(c3cc4cccnc4[nH]3)C2)cnn1C (centres unmarked) [CBK284683] | 99.7
Cc1cc(C)n(CC(=O)NC(Cc2cccs2)c2nccs2)n1 (centres unmarked) [CBK284686] | 85.8
c1cnc2[nH]c(C3CCOCC3)c(CN3CCSCC3)c2c1 [CBK284688] | 89.5
CC(C)n1nccc1NC(=O)CCn1c(C(F)F)cc2cccnc21 [CBK284690] | 99.3
Cc1csc(C(Cc2cccs2)NC(=O)CN2CCCC2=O)n1 (centres unmarked) [CBK284691] | 109
Cc1cc(C)n(CCNCc2cc(-c3ccc(F)cc3)c[nH]c2=O)n1 [CBK284694] | 89.2
O=c1[nH]cc(-c2ccc(F)cc2)cc1CNCc1ccccc1F [CBK284696] | 86.1
Cc1cc(C(F)(F)F)c2c(NCc3ccoc3)n[nH]c2n1 [CBK284698] | 82.9
COc1ccc2[nH]cc([C@@H]3CCC[C@H](NC(=O)C4CCCO4)C3)c2c1 (some centres unmarked) [CBK284699] | 105
C[C@]12CN(CCc3ccccc3)C[C@H]1NC(=O)c1ccccc1C2=O [CBK284704] | 90.3
Cc1ccc(CN2C[C@H]3C(=O)Nc4ccccc4C(=O)N[C@@]3(C)C2)o1 [CBK284706] | 95.7
CCOC(=O)Cn1ccc2ccnc(-c3cccc(OC)c3)c21 [CBK284707] | 89.6

Structure (SMILES) | viability at 28.5 h, 10 µM [%]
O=C(c1ccccc1F)N1CCCC(c2cc3ncccc3cn2)C1 (centres unmarked) [CBK284710] | 83.3
CCCNC(=O)Cn1nc(-c2cc3c(s2)CCC3)oc1=O [CBK284713] | 95.2
CC(C)(C)NC(=O)Cn1nc(-c2cc3c(s2)CCC3)oc1=O [CBK284714] | 101
C[C@H]1CN2C[C@H](O)CC2CN1Cc1cccc2ccccc12 (some centres unmarked) [CBK284717] | 92.5
CCOC(=O)C(NC(=O)CCn1ccc2ccncc21)C(C)C (centres unmarked) [CBK284719] | 91.6
CCCC(=O)N1CCC([C@@H]2C[C@H](C(F)F)n3nc(C)cc3N2)CC1 [CBK284724] | 97.6
Cc1cc2n(n1)[C@@H](C(F)F)C[C@@H](C1CCN(C(=O)C(C)C)CC1)N2 [CBK284725] | 88
COCC(C)NCc1cc(-c2ccc(Cl)cc2)c[nH]c1=O (centres unmarked) [CBK284726] | 79
Cc1ccn(CCNCc2cc(-c3ccc(Cl)cc3)c[nH]c2=O)n1 [CBK284727] | 88.4
C[C@]12CN(Cc3ccc(F)cc3)C[C@H]1NC(=O)c1ccccc1C2=O [CBK284728] | 87.8
O=C(NC1CCN(C(=O)Cn2ccc3ccncc32)CC1)C1CC1 [CBK284731] | 98.9
O=C(Cn1ccc2ccnc(-c3cccs3)c21)NCc1ccncc1 [CBK284734] | 86.5
O=C(Cn1ccc2ccnc(-c3cccs3)c21)N1CCC(O)CC1 [CBK284736] | 93.1
CC(C)(C)NC(=O)Cn1ccc2ccnc(-c3cccs3)c21 [CBK284737] | 94.1
C[C@]12CN(CC3CC=CCC3)C[C@H]1C(=O)Nc1ccccc1C(=O)N2 (some centres unmarked) [CBK284738] | 96.6
O=C1N[C@]2(Cc3ccccc31)CN(Cc1ccccc1)C[C@H]2CO [CBK284743] | 92.1
CC(C)C(=O)N1CCC(c2nc3ccccn3c2NC(C)(C)C)CC1 [CBK284745] | 95
CC(CC(=O)NC1(C#Cc2nccs2)CCCCC1)n1ccnc1 (centres unmarked) [CBK284746] | 99.5
O=C(c1cc(C2CC2)n[nH]1)N1CCn2cc(C(F)(F)F)nc2C1 [CBK284749] | 81.6
NC1CCN(C(=O)Cn2ccc3ccnc(-c4cccs4)c32)CC1 [CBK284750] | 85.7
Cc1ccc(CN2CCC(O)(Cn3ccc4ncccc43)CC2)o1 [CBK284751] | 97.7
CCC(C)NC(=O)Cn1c(C2CCOCC2)cc2cc(C)cnc21 (centres unmarked) [CBK284756] | 94.3
CC(C)(C)Nc1c(C2CCCN(C(=O)C3CC3)C2)nc2ccccn12 (centres unmarked) [CBK284759] | 105

Structure (SMILES) | viability at 28.5 h, 10 µM [%]
Cc1[nH]c2ccccc2c1[C@H]1CC[C@@H](NC(=O)c2ccnn2C)C1 [CBK284761] | 99.8
O=C1NC2(CCN(C(=O)c3ccco3)CC2)Nc2ccccc21 [CBK284762] | 104
O=C(NC(Cc1ccccc1)C(O)c1nccs1)C1CC=CCC1 (centres unmarked) [CBK284763] | 95.3
Cc1cnc2[nH]c(C(F)(F)F)c(CN3CCN(C)CC3)c2c1 [CBK284765] | 92.3
Cc1cc(C)n(CCNCc2cc(-c3ccccc3)c[nH]c2=O)n1 [CBK284770] | 101
O=c1[nH]cc(-c2ccccc2)cc1CNc1cccc2ncccc12 [CBK284771] | 77.1
COCC(=O)NC(Cc1ccsc1)c1nc(C)c(C)s1 (centres unmarked) [CBK284773] | 100
Cc1nc(C(Cc2ccsc2)NC(=O)C2CCC(=O)N2)sc1C (centres unmarked) [CBK284780] | 101
Cc1nc(C(Cc2ccsc2)NC(=O)Cn2cccn2)sc1C (centres unmarked) [CBK284781] | 93.9
OC1(Cn2ccc3ncccc32)CCN(CC2CC=CCC2)CC1 (centres unmarked) [CBK284782] | 93.6
C=CCNC(=O)C1(Cc2ccccc2-c2ccncc2)CCOCC1 [CBK284784] | 102
O=C(NC1CC1)C1(Cc2ccccc2-c2ccncc2)CCOCC1 [CBK284785] | 94.1
O=c1c2ccccc2nc2n1CCN(Cc1ccccc1)CC2 [CBK284790] | 90.2
O=C1N[C@]2(CCc3ccccc31)CN(Cc1ccsc1)C[C@H]2CO [CBK284793] | 90.7
O=C1N[C@]2(CCc3ccccc31)CN(CC1CC=CCC1)C[C@H]2CO (some centres unmarked) [CBK284794] | 96
O=C1N[C@]2(CCc3ccccc31)CN(Cc1ccccc1)C[C@H]2CO [CBK284795] | 106
COc1ccc(C(C)NC(=O)CCn2ccc3ccncc32)cc1 (centres unmarked) [CBK284798] | 92.4
O=C1NC2(CCCN(C(=O)c3ccco3)C2)Oc2ccccc21 (centres unmarked) [CBK284800] | 99.8
Cc1cccnc1C(Cc1ccsc1)NC(=O)Cn1ccnc1 (centres unmarked) [CBK284802] | 94.1
O=C1NC2(CCCN(C(=O)c3ccco3)C2)Nc2ccccc21 (centres unmarked) [CBK284803] | 104
Cc1cccnc1C(Cc1ccsc1)NC(=O)CCc1ccno1 (centres unmarked) [CBK284804] | 86.7
COc1cccc(-c2nccc3ccn(CC(=O)N4CC=CCC4)c23)c1 [CBK284806] | 104
O=C(NCCn1c(C(F)(F)F)cc(=O)c2cccc(F)c21)C1CC1 [CBK284807] | 85.5
